Results: patent US9469608B2, “Thrombin inhibitors” (Merck Sharp & Dohme Corp., priority 2012, dated 2016)
Like-named read-outs stand apart in the source and are kept apart here.

Biological target: human α-thrombin (Homo sapiens (Human), UniProt P00734)
Assay: In vitro assay for determining proteinase inhibition (thrombin Ki)
Assay type: biochemical
Description: NMR determinations were made using 400 MHz field strength. Ki data was obtained according to the procedure described in Lewis, et al. Thromb. […] Reactions sensitive to moisture or air were performed under nitrogen or argon using anhydrous solvents and reagents. […] Typically, the analytical LC-MS system used consisted of a Waters ZQ platform with electrospray ionization in positive ion detection mode with an Agilent 1100 series HPLC with autosampler. The column was usually a Water Xterra MS C18, 3.0×50 mm, 5 μm. The flow rate was 1 mL/min, and the injection volume was 10 μL. UV detection was in the range 210-400 nm. […] Preparative HPLC purifications were usually performed using a mass spectrometry directed system. […] The mobile phases consisted of mixtures of acetonitrile (10-100%) in water containing 0.1% TFA. Flow rates were maintained at 50 mL/min, the injection volume was 1800 μL, and the UV detection range was 210-400 nm. Mobile phase gradients were optimized for the individual compounds. Reactions performed using microwave irradiation were normally carried out using an Emrys Optimizer manufactured by Personal Chemistry, or an Initiator manufactured by Biotage. Concentration of solutions was carried out on a rotary evaporator under reduced pressure. Flash chromatography was usually performed using a Biotage Flash Chromatography apparatus (Dyax Corp.) on silica gel ([…], 60 Å pore size) in pre-packed cartridges of the size noted. ^1H NMR spectra were acquired at 500 MHz spectrometers in CDCl3 solutions unless otherwise noted. Chemical shifts were reported in parts per million (ppm). Tetramethylsilane (TMS) was used as internal reference in CD3Cl solutions, and residual CH3OH peak or TMS was used as internal reference in CD3OD solutions. Coupling constants (J) were reported in hertz (Hz). Chiral analytical chromatography was performed on one of Chiralpak AS, Chiralpak AD, Chiralcel OD, Chiralcel IA, or Chiralcel OJ columns (250×4.6 mm) (Daicel Chemical Industries, Ltd.) with noted percentage of either ethanol in hexane (% Et/Hex) or isopropanol in heptane (% IPA/Hep) as isocratic solvent systems. Chiral preparative chromatography was conducted on one of Chiralpak AS, Chiralpak AD, Chiralcel OD, Ciralcel IA, or Chiralcel OJ columns (20×250 mm) (Daicel Chemical Industries, Ltd.) with desired isocratic solvent systems identified on chiral analytical chromatography or by supercritical fluid (SFC) conditions. Celite® (Fluka) diatomite is diatomaceous earth, and can be referred to as “celite”.
Relevant in vitro assays are referenced in Morrissette, et al., Bioorg. […] The assays were carried out at 25° C. in 0.05 M TRIS buffer pH 7.4, 0.15 M NaCl, 0.1% PEG. Trypsin assays also contained 1 mM CaC12.
Concentrations of stock solutions of Z-GPR-afc were determined from measurements of absorbance at 380 nm of the 7-amino-4-trifluoromethyl coumarin produced upon complete hydrolysis of an aliquot of the stock solution by thrombin.
Activity assays were performed by diluting a stock solution of substrate at least tenfold to a final concentration ≦0.1 Km into a solution containing enzyme or enzyme equilibrated with inhibitor. Times required to achieve equilibration between enzyme and inhibitor were determined in control experiments. Initial velocities of product formation in the absence (Vo) or presence of inhibitor (Vi) were measured. Assuming competitive inhibition, and that unity is negligible compared Km/[S], [I]/e, and [I]/e (where [S], [I], and e respectively represent the total concentrations, of substrate, inhibitor and enzyme), the equilibrium constant (Ki) for dissociation of the inhibitor from the enzyme can be obtained from the dependence of Vo/Vi on [I] shown in the following equation.

[1] = 25° C., 0.05 M TRIS buffer pH 7.4, 0.15 M NaCl, 0.1% PEG, competitive inhibition assumed

SMILES	Ki [1] [nM]	Ki [nM]
NCc1ccc(Cl)cc1CNC(=O)[C@@H]1CCCN1C(=O)C1NCc2ccccc21 (single isomer, unassigned) [Compound 23-4a, bis(2,2,2-trifluoroacetate)]	77	–
NCc1ccc(Cl)cc1CNC(=O)[C@@H]1CCCN1C(=O)C1NCc2ccccc21 (single isomer, unassigned) [Compound 23-4b, bis(2,2,2-trifluoroacetate)]	1.1	–
CC(C)(C)[C@@H](CCO)C(=O)N1CCC[C@H]1C(=O)NCc1cc(Cl)ccc1CN [Compound 1-12, (S)—N-[2-(Aminomethyl)-5-chlorobenzyl]-1-[(R)-2-(2-hydroxyethyl)-3,3-dimethylbutanoyl]pyrrolidine-2-carboxamide-2,2,2-trifluoroacetate]	25	–
CCOC(=O)c1ccc(C(=O)N2CCC[C@H]2C(=O)NCc2cc(Cl)ccc2CN)[nH]1 [Compound 3-5, (S)-Ethyl-5-[2-{(2-(aminomethyl)-5-chlorobenzyl)carbamoyl}-pyrrolidine-1-carbonyl]-1H-pyrrole-2-carboxylate-2,2,2-trifluoroacetate]	47	–
NCc1ccc(Cl)cc1CNC(=O)[C@@H]1CCCN1C(=O)c1ccc(C(F)(F)F)[nH]1 [Compound 4-5, (S)—N-{2-(Aminomethyl)-5-chlorobenzyl}-1-{5-(trifluoromethyl)-1H-pyrrole-2-carbonyl}pyrrolidine-2-carboxamide]	27	–
NCc1ccc(Cl)cc1CNC(=O)[C@@H]1CCCN1C(=O)c1cc(C(O)c2ccncc2)c[nH]1 (stereo partly drawn) [Compound 6-2, (2S)-N-{2-(Aminomethyl)-5-chlorobenzyl}-1-[4-{hydroxyl(pyridine-4-yl)methyl}-1H-pyrrole-2-carbonyl]pyrrolidine-2-carboxamide-bis(2,2,2-trifluoroacetate)]	21	–
NCc1ccc(Cl)cc1CNC(=O)[C@@H]1CCCN1C(=O)c1cc(Cc2ccncc2)c[nH]1 [Compound 7-1, (S)—N-{2-(Aminomethyl)-5-chlorobenzyl}-1-{4-(pyridin-4-ylmethyl)-1H-pyrrole-2-carbonyl}pyrrolidine-2-carboxamide-bis(2,2,2-trifluoroacetate)]	17	–
NCc1ccc(Cl)cc1CNC(=O)[C@@H]1CCCN1C(=O)c1cc(C(=O)c2cccnc2)c[nH]1 [Compound 8-8, (S)—N-{2-(aminomethyl)-5-chlorobenzyl}-1-(4-nicotinoyl-1H-pyrrole-2-carbonyl)pyrrolidine-2-carboxamide-bis(2,2,2-trifluoro acetate]	18	–
NCc1ccc(Cl)cc1CNC(=O)[C@@H]1CCCN1C(=O)c1cc(C(O)c2cccnc2)c[nH]1 (stereo partly drawn) [Compound 9-2, (2S)-N-{2-(Aminomethyl)-5-chlorobenzyl}-1-[4-{hydroxy(pyridine-3-yl)methyl}-1H-pyrrole-2-carbonyl]pyrrolidine-2-carboxamide]	13	–
NCc1ccc(Cl)cc1CNC(=O)[C@@H]1CCCN1C(=O)c1cc(C(=O)c2ccccn2)c[nH]1 [Compound 10-7, (S)—N-{2-(Aminomethyl)-5-chlorobenzyl}-1-(4-picolinoyl-1H-pyrrole-2-carbonyl) pyrrolidine-2-carboxamide-bis(2,2,2-trifluoroacetate)]	17	–
NCc1ccc(Cl)cc1CNC(=O)[C@@H]1CCCN1C(=O)c1cc(C(O)c2ccccn2)c[nH]1 (stereo partly drawn) [Compound 11-2, (2S)-N-{2-(Aminomethyl)-5-chlorobenzyl}-1-[4-{hydroxyl(pyridine-2-yl)methyl}-1H-pyrrole-2-carbonyl]pyrrolidine-2-carboxamide]	9.7	–
NCc1ccc(Cl)cc1CNC(=O)[C@@H]1CCCN1C(=O)c1cc(-c2ccncc2)c[nH]1 [Compound 13-10, (S)—N-{2-(Aminomethyl)-5-chlorobenzyl)-1-{4-(pyridin-4-yl)-1H-pyrrole-2-carbonyl) pyrrolidine-2-carboxamide-bis(2,2,2-trifluoroacetate)]	–	3.4
NCc1ccc(Cl)cc1CNC(=O)[C@@H]1CCCN1C(=O)c1cc(-c2cccnc2)c[nH]1 [Compound 14-5, (S)—N-{2-(Aminomethyl)-5-chlorobenzyl}-1-{4-(pyridin-3-yl)-1H-pyrrole-2-carbonyl}pyrrolidine-2-carboxamide bis(2,2,2-trifluoroacetate)]	22	–
NCc1ccc(Cl)cc1CNC(=O)[C@@H]1CCCN1C(=O)c1cc(-c2ccccn2)c[nH]1 [Compound 15-8, (S)—N-[{2-(Aminomethyl)-5-chlorobenzyl}-1-{4-(pyridin-2-yl)-1H-pyrrole-2-carbonyl}]pyrrolidine-2-carboxamide bis (2,2,2-trifluoroacetate)]	22	–
CC(C)(C)[C@@H](O)C(=O)N1CCC[C@H]1C(=O)NCc1cc(Cl)ccc1CO [Compound 17-5, (S)—N-{5-Chloro-2-(hydroxymethyl)benzyl}-1-{(R)-2-hydroxy-3,3-dimethylbutanoyl}pyrrolidine-2-carboxamide]	3500	–
NCc1ccc(Cl)cc1CNC(=O)[C@@H]1CCCN1C(=O)C1(O)CCc2ncccc21 (stereo partly drawn) [Compound 19-4, (2S)-N-{2-(Aminomethyl)-5-chlorobenzyl}-1-(5-hydroxy-6,7-dihydro-5H-cyclopenta[b]pyridine-5-carbonyl)pyrrolidine-2-carboxamide-2,2,2-trifluoroacetate]	–	49
NCc1ccc(Cl)cc1CNC(=O)[C@@H]1CCCN1C(=O)C1(O)CCc2cccnc21 (stereo partly drawn) [Compound 20-8, (2S)-N-(2-(Aminomethyl)-5-chlorobenzyl)-1-(7-hydroxy-6,7-dihydro-5H-cyclopenta[b]pyridine-7-carbonyl)pyrrolidine-2-carboxamide-bis(2,2,2-trifluoroacetate)]	7.7	–
NCc1ccc(Cl)cc1CNC(=O)[C@@H]1CCCN1C(=O)C1OCc2ccccc21 (stereo partly drawn) [Compound 21-6, (2S)-N-{2-(Aminomethyl)-5-chlorobenzyl}-1-(1,3-dihydroisobenzofuran-1-carbonyl)pyrrolidine-2-carboxamide-2,2,2-trifluoroacetate]	15	–
NCc1ccc(Cl)cc1CNC(=O)[C@@H]1CCCN1C(=O)C1c2ccccc2CS1(=O)=O (stereo partly drawn) [Compound 22-10, (2S)-N-{2-(Aminomethyl)-5-chlorobenzyl}-1-(2,2-dioxido-1,3-dihydrobenzo[a]thiophene-1-carbonyl)pyrrolidine-2-carboxamide-2,2,2-trifluoroacetate-2,2,2-trifluoroacetate]	400	–
NCc1ccc(Cl)cc1CNC(=O)[C@@H]1CCCN1C(=O)C1COc2ccccc21 (stereo partly drawn) [Compound 24-8, (2S)-N-{2-(Aminomethyl)-5-chlorobenzyl}-1-(2,3-dihydrobenzofuran-3-carbonyl)pyrrolidine-2-carboxamide-2,2,2-trifluoroacetate]	9.2	–
NCc1ccc(Cl)cc1CNC(=O)[C@@H]1CCCN1C(=O)C1CNc2ccccc21 (stereo partly drawn) [Compound 25-5, (2S)-N-{2-(Aminomethyl)-5-chlorobenzyl}-1-(indoline-3-carbonyl)pyrrolidine-2-carboxamide bis(2,2,2-trifluoroacetate)]	–	59
NCc1ccc(Cl)cc1CNC(=O)[C@@H]1CCN1C(=O)C1(O)CCc2ncccc21 (stereo partly drawn) [Compound 26-12, (2S)-N-{2-(Aminomethyl)-5-chlorobenzyl}-1-(5-hydroxy-6,7-dihydro-5H-cyclopenta[b]pyridine-5-carbonyl)azetidine-2-carboxamide bis(2,2,2-trifluoroacetate)]	–	325
NCc1ccc(Cl)cc1CNC(=O)[C@@H]1CCCN1C(=O)C1(O)CCc2cnccc21 (stereo partly drawn) [Compound 27-9]	20	–
NCc1ccc(Cl)cc1CNC(=O)[C@@H]1CCCN1C(=O)C1(O)CCc2ccncc21 (stereo partly drawn) [Compound 28-6, (2S)-N-{2-(aminomethyl)-5-chlorobenzyl}-1-(7-hydroxy-6,7-dihydro-5H-cyclopenta[c]pyridine-7-carbonyl)pyrrolidine-2-carboxamide bis (2,2,2-trifluoroacetate)]	16	–
